Measurements published in the supplement of paper PMC10307832.

Assays:
Assay in all cases: relative viability (nuclei count vs DMSO), 5 days (fraction); higher = more cells survive
[1] = compound: Cc1ccc(C(=O)Nc2ccc(CN3CCN(C)CC3)c(C(F)(F)F)c2)cc1C#Cc1cnc2cccnn12 [Ponatinib] + CS(=O)(=O)CCNCc1ccc(-c2ccc3ncnc(Nc4ccc(OCc5cccc(F)c5)c(Cl)c4)c3c2)o1 [Lapatinib] (partner 2 µM)
Procedure, shortened: (§1)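 A single step with final 0.05% Triton X-100, 1% formaldehyde and 1 ug/ml Hoechst fixed the cells and stained nuclei 5 days after treatment. Lung cancer cell lines in 1536-well plates had been treated by pin tool the day after seeding with one drug alone or a fixed anchor-drug dose plus five library-drug doses (not always all listed) in √10 steps, and nuclei were counted on 4× images. Relative viability is the ratio of nuclei in treated wells to nuclei in vehicle wells, taken as the median of duplicate plates.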

[2] = compound: Cc1ccc(Nc2nccc(N(C)c3ccc4c(C)n(C)nc4c3)n2)cc1S(N)(=O)=O [Pazopanib] + Cc1nc(NC(=O)N2CCC[C@H]2C(N)=O)sc1-c1ccnc(C(C)(C)C(F)(F)F)c1 [Alpelisib] (partner 2 µM)
Procedure, shortened: as §1

[3] = compound: Cc1ccc(Nc2nccc(N(C)c3ccc4c(C)n(C)nc4c3)n2)cc1S(N)(=O)=O [Pazopanib] + O=C(c1cc(Cc2n[nH]c(=O)c3ccccc23)ccc1F)N1CCN(C(=O)C2CC2)CC1 [Olaparib] (partner 8 µM)
Procedure, shortened: as §1

[4] = compound: Cc1ccc(Nc2nccc(N(C)c3ccc4c(C)n(C)nc4c3)n2)cc1S(N)(=O)=O [Pazopanib] + Cc1cc(Nc2cc(N3CCN(C)CC3)nc(Sc3ccc(NC(=O)C4CC4)cc3)n2)n[nH]1 [Tozasertib] (partner 0.1 µM)
Procedure, shortened: as §1

| Cell Line | relative viability ([1]; first compound 0.002 µM) | relative viability ([1]; first compound 0.006325 µM) | relative viability ([1]; first compound 0.06325 µM) | relative viability ([1]; first compound 0.2 µM) | relative viability ([2]; first compound 0.01 µM) | relative viability ([2]; first compound 0.03162 µM) | relative viability ([2]; first compound 0.1 µM) | relative viability ([2]; first compound 0.3162 µM) | relative viability ([2]; first compound 1 µM) | relative viability ([3]; first compound 0.01 µM) | relative viability ([3]; first compound 0.03162 µM) | relative viability ([3]; first compound 0.1 µM) | relative viability ([3]; first compound 0.3162 µM) | relative viability ([3]; first compound 1 µM) | relative viability ([4]; first compound 0.01 µM) | relative viability ([4]; first compound 0.03162 µM) | relative viability ([4]; first compound 0.1 µM) | relative viability ([4]; first compound 0.3162 µM) | relative viability ([4]; first compound 1 µM) |
| --- | --- | --- | --- | --- | --- | --- | --- | --- | --- | --- | --- | --- | --- | --- | --- | --- | --- | --- | --- |
| LXF-289 | 0.855 | 0.895 | 0.894 | 0.859 | 1.06 | 1.04 | 1.02 | 1.03 | 1.09 | 1.05 | 1.06 | 1.1 | 1.05 | 1.05 | 0.223 | 0.213 | 0.189 | 0.189 | 0.175 |
| NCI-H23 | 1.03 | 1.02 | 1.31 | 0.985 | 0.676 | 0.73 | 0.738 | 0.693 | 0.919 | 0.315 | 0.343 | 0.297 | 0.321 | 0.36 | 0.373 | 0.341 | 0.359 | 0.458 | 0.392 |
| NCI-H322M | 0.636 | 0.61 | 0.659 | 0.518 | 0.846 | 1.03 | 0.779 | 0.632 | 0.926 | 0.885 | 0.817 | 0.881 | 0.71 | 0.71 | 0.536 | 0.518 | 0.547 | 0.448 | 0.476 |
| NCI-H358 | 0.468 | 0.431 | 0.393 | 0.378 | 1.06 | 0.892 | 0.91 | 0.864 | 0.922 | 0.757 | 0.662 | 0.629 | 0.639 | 0.599 | 0.109 | 0.0888 | 0.104 |  | 0.0878 |
| NCI-H460 | 0.942 | 0.853 | 1.08 | 0.876 | 0.432 | 0.529 | 0.52 | 0.531 | 0.6 | 0.51 | 0.413 | 0.572 | 0.406 | 0.409 | 0.564 | 0.503 | 0.523 | 0.494 | 0.393 |
| NCI-H520 | 0.725 | 0.801 | 0.688 | 0.531 |  | 1.04 | 0.884 | 0.873 | 0.816 | 0.38 | 0.277 | 0.414 | 0.348 | 0.285 | 0.458 | 0.416 | 0.452 | 0.438 | 0.386 |
| NCI-H596 | 1.09 | 0.898 | 0.905 | 0.748 | 0.473 | 0.479 | 0.487 | 0.457 | 0.513 | 0.674 | 0.661 | 0.676 | 0.749 | 0.629 |  | 0.942 | 0.856 | 0.936 | 0.761 |
| NCI-H647 | 0.99 | 0.995 | 1.11 | 0.811 | 1.37 | 1.31 | 1.35 | 1.19 | 1.11 | 0.717 | 0.714 | 0.803 | 0.486 | 0.474 | 0.23 | 0.279 | 0.395 | 0.43 | 0.321 |
